Structures can show the parent of a compound that is named as a salt.
Columns and labels:
E. coli 70S ribosome = assay: Competitive fluorescence polarization assay against Cf-ARV-1502 (Ki); assay type: binding, E. coli BW25113; details: 20 nmol/L Cf-ARV-1502, 0.5 µmol/L ribosome, 28 °C, 90 min + 90 min, Ki calculated from IC50; for Ki: read-out: Ki (nmol/L), competition with Cf-ARV-1502
Method: E. coli 70S ribosomes were prepared using a previously described protocol that was slightly modified. Briefly, E. coli BW25113 was cultivated in Luria-Bertani (LB) medium and cells were harvested after reaching an optical density of ~4 at 600 nm by centrifugation (5000× g, 15 min, 4 °C, Rotor JLA 8.100, Avanti J-20 XP, Beckmann Coulter, Krefeld, Germany). The cell pellets were frozen and stored at −80 °C. Cells were resuspended in ribosome buffer (2 mL/g cells; 20 mmol/L HEPES-KOH, 6 mmol/L MgCl2, 30 mmol/L NH4Cl, 4 mmol/L 2-mercaptoethanol, pH 7.6). Lysozyme (0.25 g/L cell suspension) was added, and the mixture was incubated on ice for 30 min. Cells were disrupted using the bead mill homogenizer FastPrep-24™ 5G (40 s, 4 m/s, 6 cycles, MP Biomedicals Germany GmbH, Eschwege, Germany) and zirconia/silica beads (0.1 mm diameter). The lysate was centrifuged (1500× g, 5 min, 4 °C, Rotor S4180, Allegra 21R, Beckmann Coulter) and the supernatant was incubated with DNase (5 U/mL) on ice for 60 min.
Dissociation and inhibitory constants were determined in black 384-well-plates (Greiner Bio-One GmbH, Frickenhausen, Germany) blocked with 0.5% (w/v) casein in phosphate buffered saline (PBS, 8.8 mmol/L Na2HPO4×12 H2O, 1.2 mmol/L KH2PO4, 0.3 mol/L NaCl, pH 7.4) containing 0.05% (w/v) Tween® 20 (PBST) overnight at 4 °C and washed three times with PBST.
Ribosome solution was added (10 µmol/L) and the plate was incubated after centrifugation (2 min, 500× g, Rotor S2096, Allegra^TM 21R, Beckmann Coulter) at 28 °C for 90 min. Cf-labeled peptide was added (10 µL; final concentration of 20 nmol/L; final ribosome concentration of 0.5 µmol/L) and the plate was centrifuged and incubated again (90 min, 28 °C, dark). […] Kd and IC50 values were calculated by fitting the data with a variable slope parameter [y = min + (max − min)/(1 + (x/Kd) ^−Hill slope) ] using SigmaPlot 13 (Systat Software Inc., San Jose, CA, USA). The obtained IC50 values were used to calculate the Ki values.

E. coli BW25113 = assay: Checkerboard assay (FICI); assay type: cell-based, Escherichia coli; details: E. coli BW25113, 25% MHB2; synergy FICI ≤ 0.5, antagonism FICI ≥ 4; Table S6
Method: Synergy was tested in sterile 96-well plates (polystyrene F-bottom, Greiner Bio-One GmbH) using a total volume of 100 μL per well. […] Plates were incubated (37 °C, 20 h) and the optical density recorded at 595 nm using a microplate reader (Victor3, Perkin Elmer Inc., Waltham, MA, USA). The fractional inhibitory concentration index (FICI) was calculated by the equation FICI = […] = (A/MICA) + (B/MICB), where MICA/B are the MICs of an antimicrobial peptide (A) and one of the three tested antibiotics (B) alone and A and B are the MICs of combined antimicrobials. Synergy was defined as FICI ≤ 0.5, antagonism as FICI ≥ 4 and additive or indifference as FICI between 0.5 and 4.

Row | SMILES | Ki (E. coli 70S ribosome) [nmol/L] | Checkerboard assay (FICI), antibiotic combined with peptide (E. coli BW25113) | Ki (nmol/L), competition with Cf-ARV-1502 (E. coli 70S ribosome) | Ki (nmol/L), competition with Cf-ARV-1502 (E. coli 70S ribosome; listed as kanamycin) | Ki (nmol/L), competition with Cf-ARV-1502 (E. coli 70S ribosome; listed as streptomycin)
1 | O=C(N[C@H](CO)[C@H](O)c1ccc([N+](=O)[O-])cc1)C(Cl)Cl [Chloramphenicol] | 1700 ± 481 |  |  |  | 
2 | CC[C@H]1OC(=O)[C@H](C)[C@@H](O[C@H]2C[C@@](C)(OC)[C@@H](O)[C@H](C)O2)[C@H](C)[C@@H](O[C@@H]2O[C@H](C)C[C@H](N(C)C)[C@H]2O)[C@](C)(O)C[C@@H](C)C(=O)[C@H](C)[C@@H](O)[C@]1(C)O [Erythromycin] | 23 ± 1.6 |  |  |  | 
3 | NC[C@H]1O[C@H](O[C@H]2[C@H](O)[C@@H](O[C@H]3O[C@H](CO)[C@@H](O)[C@H](N)[C@H]3O)[C@H](N)C[C@@H]2N)[C@H](O)[C@@H](O)[C@@H]1O [Kanamycin, kanamycin sulfate] |  | neither synergistic nor antagonistic effects | no fit | did not affect the binding of Cf-ARV-1502 | 
4 | [H]/N=C(/N)N[C@H]1[C@H](O)[C@@H](O)[C@H](O[C@@H]2O[C@@H](C)[C@](O)(C=O)[C@H]2O[C@@H]2O[C@@H](CO)[C@H](O)[C@@H](O)[C@@H]2NC)[C@@H](N/C(N)=N\[H])[C@@H]1O [Streptomycin] |  |  | no fit |  | did not affect the binding of Cf-ARV-1502

From PMC8950706, “Influence of Substitutions in the Binding Motif of Proline-Rich Antimicrobial Peptide ARV-1502 on 70S Ribosome Binding and Antimicrobial Activity” (International Journal of Molecular Sciences, 2022)
